Substitutions are numbered along the chain they refer to. “And” between values parts separate entries of the source, which are not always exact repeats. Equal values may be shown once.
Experiments:
Casp6-L200A-LS-SS = molecular target: T1, Casp6-L200A-LS-SS (Homo sapiens, UniProt P55212, L200A); test: C13 dose-response and global-fit kinetics on Casp6-L200A-LS-SS; assay type: biochemical
T1 construct: obtained by co-expression and purification of LS and SS subunits of WT, L200A or K284A Casp6 from E. coli; His (C); made in house; host or cells: E. coli BL21(DE3)pLysS
T1 sequence (P55212 24-179 limits assumed): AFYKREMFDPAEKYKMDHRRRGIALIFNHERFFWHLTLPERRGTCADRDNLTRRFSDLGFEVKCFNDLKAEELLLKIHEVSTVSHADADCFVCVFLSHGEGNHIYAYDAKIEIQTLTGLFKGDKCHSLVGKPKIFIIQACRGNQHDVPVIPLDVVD
T1 sequence (P55212 194-293 L200A limits assumed): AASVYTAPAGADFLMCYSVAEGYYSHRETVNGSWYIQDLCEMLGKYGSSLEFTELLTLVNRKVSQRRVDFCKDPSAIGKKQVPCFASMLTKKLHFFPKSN
From the text: Figure 4 Compounds S10G and C13 inhibit Casp6 through a noncompetitive mode of inhibition. (a) Michaelis-Menten kinetic plots of Casp6 enzymatic activity in presence of 1% DMSO or increasing doses S10G (top) and C13 (bottom). Data points represent mean ± SD of three independent experiments. (b) Lineweaver-Burk plots of Casp6 inhibition with S10G (top) and C13 (bottom). Red circle indicates the point where lines converge. (c) The relationship between the slopes of lines in Lineweaver-Burk plot analyses in panel (b) and inhibitor concentration. (d) Plots of IC50 values for S10G (top) and C13 (bottom) with varying concentrations of Ac-VEID-AFC substrate. Data points represent mean ± SD from three independent experiments for each substrate concentration. (e) Binding model of C13 into CASP6 putative allosteric site, derived from molecular docking. Left: C13 (green sticks) occupies the putative allosteric site (white surface and lines; Ala-mutated residues L200 and K284 shown as purple sticks). Right: predicted interactions with Casp6 allosteric pocket residues (pink balls polar, circled blue or red for basic and acidic, respectively. Green balls = hydrophobic. Dotted-arrow: blue and green for backbone and sidechain hydrogen-bond interactions, respectively. Blue shade = solvent exposed area). Dose-response curves of C13 for Casp6-WT and Casp6-K284A (f), and copurified LS and SS of Casp6-WT-LS-SS, Casp6-L200A-LS-SS, and Casp6-K284A-LS-SS (g). Data represent mean ± SD from at least three independent experiments. (h) Global fit of kinetics data to a noncompetitive (mixed) inhibition model for Casp6-WT-LS-SS (left panel, R^2 = 0.9635), Casp6-L200A-LS-SS (middle panel, R^2 = 0.9699), and Casp6-K284A-LS-SS (right panel, R^2 = 0.9794) in the presence of 0–50 µM C13. Data points on the graph represent the mean ± SD, and calculated Ki values represent mean ± standard error (SE) from three independent experiments.
To determine the importance of C13 interactions with L200 and K284 for C13 binding in the Casp6 allosteric pocket, we have generated Casp6-L200A and Casp6-K284A mutants and investigated inhibition with C13. […]
Compounds, S10G (2.5 µM, 4.2 µM, 10 µM), and C13 (5 µM, 14 µM, 50 µM), were added to 20 nM active site titrated Casp6 and enzyme activity was measured with eight different Ac-VEID-AFC substrate concentrations (5.0 μM–200 μM) using fluorescence-based Casp6 activity assay as above. The apparent KM and Vmax values were determined through nonlinear regression analysis of Michaelis-Menten plots (v vs. [S]) using GraphPad Prism 5. The inhibition mode was determined from the pattern of converging Lineweaver-Burk plots (1/v vs. 1/[S])[54]. […]

Casp6 = molecular target: T2, Casp6 (Homo sapiens, UniProt P55212, INS179NQTEKLDTNITEVD); test: Determination of inhibition mechanism and Ki (Michaelis-Menten, Lineweaver-Burk plots); assay type: biochemical
T2 construct: generating mainly large subunit with a linker (LS-L), small subunit (SS), and a minor amount of large subunit (LS); His (C); made in house; host or cells: E. coli BL21(DE3)pLysS
T2 sequence (P55212 24-193 limits assumed): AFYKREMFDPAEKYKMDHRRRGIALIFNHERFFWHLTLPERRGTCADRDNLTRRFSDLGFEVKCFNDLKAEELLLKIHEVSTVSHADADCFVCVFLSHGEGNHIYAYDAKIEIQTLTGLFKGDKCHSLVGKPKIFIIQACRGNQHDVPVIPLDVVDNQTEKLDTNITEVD
T2 sequence (P55212 194-293 limits assumed): T1 sequence (P55212 194-293 L200A limits assumed) with A7L
Experimental: The inhibition of Casp6 activity with S10G and C13 was reversible (Fig. S5). To determine mode of inhibition, kinetic analyses were conducted on Casp6 using S10G and C13 (Fig. 4a). […] (Fig. 4b).
Compounds, S10G (2.5 µM, 4.2 µM, 10 µM), and C13 (5 µM, 14 µM, 50 µM), were added to 20 nM active site titrated Casp6 and enzyme activity was measured with eight different Ac-VEID-AFC substrate concentrations (5.0 μM–200 μM) using fluorescence-based Casp6 activity assay as above. The apparent KM and Vmax values were determined through nonlinear regression analysis of Michaelis-Menten plots (v vs. [S]) using GraphPad Prism 5. The inhibition mode was determined from the pattern of converging Lineweaver-Burk plots (1/v vs. 1/[S])[54]. The dissociation constant (Ki) for Casp6-inhibitor complex was determined from the x-axis intercept (which is equal to −Ki) in the plot of Lineweaver-Burk slopes vs. inhibitor concentration. Alternatively, inhibition model and Ki were determined by global fit of kinetic data to the competitive, noncompetitive, noncompetitive (mixed) or uncompetitive inhibition models using respective equations in GraphPad Prism 5.

fold lower IC50 for Casp6-L200A-LS-SS compared to Casp6-WT-LS-SS (Casp6-L200A-LS-SS): 1.4 fold | inhibition model (best global fit), Casp6-L200A-LS-SS (Casp6-L200A-LS-SS; Ac-VEID-AFC hydrolysis, increasing substrate and C13 concentrations): noncompetitive (mixed) model inhibition | IC50 (Casp6-L200A-LS-SS; copurified LS and SS, read-out: IC50 of C13 for Casp6-L200A-LS-SS (Fig. 4g)): 23.4 ± 4.5 µM | Ki (Casp6-L200A-LS-SS; global fit to noncompetitive (mixed) model, 0–50 µM C13, mean ± SE): 6.82 µM and 6.8 µM | mode of inhibition (Casp6; Lineweaver-Burk plot pattern): noncompetitive inhibition | Ki (Casp6; from plot of Lineweaver-Burk slopes vs inhibitor concentration, Casp6, Ac-VEID-AFC, read-out: Ki (dissociation constant)): 5.3 µM
Structure (SMILES): COC(=O)c1cc(CNC(=O)C2Cc3ccccc3O2)cc(NC(=O)c2ccco2)c1 (stereo not drawn) [Compound C13]
